# Test results reported in ChEMBL document CHEMBL5465560, “Selectivity Literature for EUbOPEN Chemogenomic Library” (2024).
# What was measured:
# [1] = target: Cyclin-dependent kinase 17 (Homo sapiens) (UniProt Q00537); settings: at 10 µM
# [2] = target: T1, Dual specificity tyrosine-phosphorylation-regulated kinase 2 (Homo sapiens) (UniProt Q92630); assay: Selectivity interaction (KinomeScan (DiscoverX)) EUB0000045b DYRK2
# T1 sequence (whole entry): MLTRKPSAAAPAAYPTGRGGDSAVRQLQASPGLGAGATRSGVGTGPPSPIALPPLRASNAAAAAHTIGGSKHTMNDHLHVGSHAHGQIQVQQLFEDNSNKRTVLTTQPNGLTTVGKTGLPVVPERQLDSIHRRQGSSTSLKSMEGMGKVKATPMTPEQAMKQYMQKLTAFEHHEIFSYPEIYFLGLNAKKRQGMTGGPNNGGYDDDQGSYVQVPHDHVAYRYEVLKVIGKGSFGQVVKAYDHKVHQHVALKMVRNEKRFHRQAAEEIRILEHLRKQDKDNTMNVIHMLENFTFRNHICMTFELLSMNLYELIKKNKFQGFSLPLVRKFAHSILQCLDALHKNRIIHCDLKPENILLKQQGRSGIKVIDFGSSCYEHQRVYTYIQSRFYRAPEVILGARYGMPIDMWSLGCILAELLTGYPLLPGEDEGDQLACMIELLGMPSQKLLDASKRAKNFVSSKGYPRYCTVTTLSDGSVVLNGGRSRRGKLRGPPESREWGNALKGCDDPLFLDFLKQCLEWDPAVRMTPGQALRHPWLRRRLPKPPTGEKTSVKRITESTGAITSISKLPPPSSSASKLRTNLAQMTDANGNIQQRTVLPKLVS
# [3] = target: Platelet-derived growth factor receptor alpha (Homo sapiens, UniProt P16234); assay: Selectivity interaction (Kinase screening (Upstate/Millipore)) EUB0000604a PDGFRA
# [4] = target: Serine/threonine-protein kinase 24 (Homo sapiens) (UniProt Q9Y6E0); assay: Selectivity interaction (KinomeScan (DiscoverX)) EUB0001049a STK24; settings: at 1 µM
# [5] = target: T2, Serine/threonine-protein kinase STK11 (Homo sapiens) (UniProt Q15831); assay: Selectivity interaction (Upstate Kinase Profiler service (Millipore)) EUB0000056c STK11; settings: at 1 µM
# T2 sequence (whole entry): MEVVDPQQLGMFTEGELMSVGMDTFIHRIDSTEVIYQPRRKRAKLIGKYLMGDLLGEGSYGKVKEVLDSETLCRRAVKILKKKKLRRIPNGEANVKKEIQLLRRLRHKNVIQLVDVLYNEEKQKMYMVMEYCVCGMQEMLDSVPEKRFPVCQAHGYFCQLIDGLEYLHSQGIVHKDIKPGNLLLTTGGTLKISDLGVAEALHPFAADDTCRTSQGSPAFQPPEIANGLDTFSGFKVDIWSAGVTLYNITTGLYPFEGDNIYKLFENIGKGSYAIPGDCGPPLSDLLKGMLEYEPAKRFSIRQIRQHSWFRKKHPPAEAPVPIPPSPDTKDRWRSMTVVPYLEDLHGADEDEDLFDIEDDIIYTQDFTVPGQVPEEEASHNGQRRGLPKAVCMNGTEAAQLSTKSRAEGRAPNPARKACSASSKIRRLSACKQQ
# [6] = target: Mitogen-activated protein kinase kinase kinase kinase 5 (Homo sapiens) (UniProt Q9Y4K4); assay: Selectivity interaction (ProQinase) EUB0000171b MAP4K5
# [7] = target: Tyrosine-protein kinase receptor UFO (Homo sapiens) (UniProt P30530); assay: Selectivity interaction (ProQinase) EUB0000171b AXL
# [8] = target: Casein kinase II subunit alpha (Homo sapiens, UniProt P68400); assay: Selectivity interaction (Kinase panel (literature)) EUB0001199aCl CSNK2A1; settings: at 1 µM
# [9] = target: Calcium/calmodulin-dependent protein kinase type II subunit alpha (Homo sapiens, UniProt Q9UQM7); assay: Selectivity interaction (SelectScreen profiling (Invitrogen)) EUB0000607a CAMK2A; settings: at 2 µM
# [10] = target: T3, Testis-specific serine/threonine-protein kinase 3 (Homo sapiens) (UniProt Q96PN8); assay: Selectivity interaction (SelectScreen profiling (Invitrogen)) EUB0000607a TSSK3; settings: at 2 µM
# T3 sequence (whole entry): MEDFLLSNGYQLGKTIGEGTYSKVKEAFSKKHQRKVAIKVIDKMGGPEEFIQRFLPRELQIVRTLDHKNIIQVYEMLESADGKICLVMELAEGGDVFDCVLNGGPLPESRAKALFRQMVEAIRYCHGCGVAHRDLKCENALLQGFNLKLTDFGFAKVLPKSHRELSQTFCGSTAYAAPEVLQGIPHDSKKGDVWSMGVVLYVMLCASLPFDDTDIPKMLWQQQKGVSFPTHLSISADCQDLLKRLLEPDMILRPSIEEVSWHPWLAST
# [11] = target: Interleukin-1 receptor-associated kinase 1 (Homo sapiens) (UniProt P51617); assay: Selectivity interaction (Kinase panel (Invitrogen)) EUB0000639a IRAK1; settings: at 200 nM
# [12] = target: T4, Tyrosine-protein kinase Tec (Homo sapiens) (UniProt P42680); assay: Selectivity interaction (ActivX KiNativ screen (kinase selectivity in THP-1 cell lysates)) EUB0000639a TEC; format: subcellular; settings: lysate, at 0.2 µM
# T4 sequence (whole entry): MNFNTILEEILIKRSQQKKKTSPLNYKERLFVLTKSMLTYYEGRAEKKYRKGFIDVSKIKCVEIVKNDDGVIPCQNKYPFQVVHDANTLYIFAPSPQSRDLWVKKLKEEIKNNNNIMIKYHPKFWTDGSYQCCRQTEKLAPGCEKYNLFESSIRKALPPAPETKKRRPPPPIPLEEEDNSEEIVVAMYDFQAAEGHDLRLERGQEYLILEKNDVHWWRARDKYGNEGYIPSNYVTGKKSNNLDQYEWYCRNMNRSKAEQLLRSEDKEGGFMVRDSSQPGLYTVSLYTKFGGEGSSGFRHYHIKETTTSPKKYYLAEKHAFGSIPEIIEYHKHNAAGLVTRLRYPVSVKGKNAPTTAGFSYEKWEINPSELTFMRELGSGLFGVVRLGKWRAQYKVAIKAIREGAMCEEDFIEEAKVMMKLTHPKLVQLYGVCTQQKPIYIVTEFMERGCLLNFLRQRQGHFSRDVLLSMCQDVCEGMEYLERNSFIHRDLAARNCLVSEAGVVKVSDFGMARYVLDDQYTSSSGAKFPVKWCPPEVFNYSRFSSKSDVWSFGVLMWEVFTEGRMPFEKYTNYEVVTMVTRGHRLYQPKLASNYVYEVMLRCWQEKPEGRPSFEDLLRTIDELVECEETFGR
# [13] = target: Rho-associated protein kinase 2 (Homo sapiens, UniProt O75116); assay: Selectivity interaction (ActivX KiNativ screen (kinase selectivity in THP-1 cell lysates)) EUB0000639a ROCK2; format: subcellular; settings: lysate
# SRSF protein kinase 1 = SRSF protein kinase 1 (Homo sapiens, UniProt Q96SB4); assay: Selectivity interaction (ActivX KiNativ screen (kinase selectivity in THP-1 cell lysates)) EUB0000639a SRPK1; format: subcellular; settings: lysate, at 0.01 µM
# Sequence of SRSF protein kinase 1 (Q96SB4 whole entry): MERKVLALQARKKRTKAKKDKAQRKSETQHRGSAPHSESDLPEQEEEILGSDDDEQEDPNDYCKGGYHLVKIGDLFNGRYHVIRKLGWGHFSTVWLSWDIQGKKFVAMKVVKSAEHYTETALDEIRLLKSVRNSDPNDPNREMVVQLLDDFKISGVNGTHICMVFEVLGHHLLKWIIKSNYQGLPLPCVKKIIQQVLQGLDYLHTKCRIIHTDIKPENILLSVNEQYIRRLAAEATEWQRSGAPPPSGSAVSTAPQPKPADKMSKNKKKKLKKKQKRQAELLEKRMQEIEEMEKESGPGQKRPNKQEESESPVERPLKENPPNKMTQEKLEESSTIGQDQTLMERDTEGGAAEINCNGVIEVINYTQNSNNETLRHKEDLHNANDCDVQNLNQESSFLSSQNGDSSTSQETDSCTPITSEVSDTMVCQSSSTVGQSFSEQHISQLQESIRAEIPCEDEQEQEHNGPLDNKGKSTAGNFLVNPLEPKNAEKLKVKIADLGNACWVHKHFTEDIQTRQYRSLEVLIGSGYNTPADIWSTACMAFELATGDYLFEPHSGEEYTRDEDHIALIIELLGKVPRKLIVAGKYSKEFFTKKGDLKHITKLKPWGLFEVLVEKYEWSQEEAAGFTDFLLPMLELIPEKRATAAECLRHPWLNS
# Sequence of Rho-associated protein kinase 2 (O75116 whole entry, looked up): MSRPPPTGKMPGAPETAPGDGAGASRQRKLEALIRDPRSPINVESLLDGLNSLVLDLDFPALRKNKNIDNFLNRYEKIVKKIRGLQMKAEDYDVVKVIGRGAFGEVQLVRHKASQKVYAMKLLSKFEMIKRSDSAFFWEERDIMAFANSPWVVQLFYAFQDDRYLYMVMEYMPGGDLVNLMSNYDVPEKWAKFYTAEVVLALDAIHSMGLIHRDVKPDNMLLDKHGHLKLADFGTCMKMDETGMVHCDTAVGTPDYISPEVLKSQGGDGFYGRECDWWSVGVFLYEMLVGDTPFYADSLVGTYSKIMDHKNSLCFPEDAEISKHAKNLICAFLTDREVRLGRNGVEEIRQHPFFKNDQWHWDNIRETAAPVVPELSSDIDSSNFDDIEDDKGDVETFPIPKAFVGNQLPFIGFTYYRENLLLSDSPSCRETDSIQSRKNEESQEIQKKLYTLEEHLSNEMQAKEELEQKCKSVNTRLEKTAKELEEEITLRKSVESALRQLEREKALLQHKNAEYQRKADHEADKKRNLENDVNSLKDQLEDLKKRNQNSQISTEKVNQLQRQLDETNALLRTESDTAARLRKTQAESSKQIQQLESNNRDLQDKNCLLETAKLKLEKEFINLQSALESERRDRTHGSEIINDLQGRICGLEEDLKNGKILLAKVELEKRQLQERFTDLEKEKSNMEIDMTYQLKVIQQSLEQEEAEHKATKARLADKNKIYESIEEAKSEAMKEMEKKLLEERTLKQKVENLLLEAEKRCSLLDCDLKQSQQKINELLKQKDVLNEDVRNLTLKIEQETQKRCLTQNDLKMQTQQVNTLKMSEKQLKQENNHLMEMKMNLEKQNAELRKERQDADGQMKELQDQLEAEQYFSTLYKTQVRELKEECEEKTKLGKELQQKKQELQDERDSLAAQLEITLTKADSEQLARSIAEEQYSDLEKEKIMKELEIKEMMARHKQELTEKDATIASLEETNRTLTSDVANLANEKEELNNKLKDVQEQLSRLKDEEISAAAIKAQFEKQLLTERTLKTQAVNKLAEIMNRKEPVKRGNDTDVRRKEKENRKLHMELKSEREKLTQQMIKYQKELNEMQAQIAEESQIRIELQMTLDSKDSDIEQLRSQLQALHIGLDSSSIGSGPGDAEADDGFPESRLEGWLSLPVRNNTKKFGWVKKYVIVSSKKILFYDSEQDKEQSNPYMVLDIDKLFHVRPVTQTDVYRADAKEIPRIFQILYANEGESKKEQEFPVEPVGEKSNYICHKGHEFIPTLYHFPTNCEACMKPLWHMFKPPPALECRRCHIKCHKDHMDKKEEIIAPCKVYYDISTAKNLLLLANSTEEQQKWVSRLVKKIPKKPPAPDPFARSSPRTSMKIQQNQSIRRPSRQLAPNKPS
# Sequence of Tyrosine-protein kinase receptor UFO (Homo sapiens) (P30530 whole entry): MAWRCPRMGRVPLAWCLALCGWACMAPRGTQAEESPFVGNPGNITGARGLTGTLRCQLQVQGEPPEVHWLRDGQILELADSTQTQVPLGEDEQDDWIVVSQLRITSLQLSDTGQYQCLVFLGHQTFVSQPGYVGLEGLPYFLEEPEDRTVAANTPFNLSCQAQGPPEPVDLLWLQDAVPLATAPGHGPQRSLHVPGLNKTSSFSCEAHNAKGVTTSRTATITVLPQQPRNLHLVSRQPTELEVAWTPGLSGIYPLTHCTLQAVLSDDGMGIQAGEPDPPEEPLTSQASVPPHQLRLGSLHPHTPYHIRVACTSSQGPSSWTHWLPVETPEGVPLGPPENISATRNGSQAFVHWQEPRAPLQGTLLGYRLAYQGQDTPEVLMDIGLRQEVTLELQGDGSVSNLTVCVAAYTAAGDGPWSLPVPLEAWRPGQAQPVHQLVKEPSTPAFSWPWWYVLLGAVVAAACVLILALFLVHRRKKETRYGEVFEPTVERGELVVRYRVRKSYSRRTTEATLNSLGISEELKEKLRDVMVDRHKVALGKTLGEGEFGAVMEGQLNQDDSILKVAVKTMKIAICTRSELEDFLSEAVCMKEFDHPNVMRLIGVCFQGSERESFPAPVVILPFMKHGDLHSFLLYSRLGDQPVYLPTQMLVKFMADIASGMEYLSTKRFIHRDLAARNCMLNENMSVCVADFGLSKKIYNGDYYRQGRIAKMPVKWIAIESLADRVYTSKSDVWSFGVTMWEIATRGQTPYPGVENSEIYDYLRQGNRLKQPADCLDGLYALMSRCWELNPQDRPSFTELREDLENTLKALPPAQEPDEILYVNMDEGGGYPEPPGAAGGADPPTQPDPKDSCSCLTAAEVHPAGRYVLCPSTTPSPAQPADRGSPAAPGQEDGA
# Sequence of Mitogen-activated protein kinase kinase kinase kinase 5 (Homo sapiens) (Q9Y4K4 whole entry, looked up): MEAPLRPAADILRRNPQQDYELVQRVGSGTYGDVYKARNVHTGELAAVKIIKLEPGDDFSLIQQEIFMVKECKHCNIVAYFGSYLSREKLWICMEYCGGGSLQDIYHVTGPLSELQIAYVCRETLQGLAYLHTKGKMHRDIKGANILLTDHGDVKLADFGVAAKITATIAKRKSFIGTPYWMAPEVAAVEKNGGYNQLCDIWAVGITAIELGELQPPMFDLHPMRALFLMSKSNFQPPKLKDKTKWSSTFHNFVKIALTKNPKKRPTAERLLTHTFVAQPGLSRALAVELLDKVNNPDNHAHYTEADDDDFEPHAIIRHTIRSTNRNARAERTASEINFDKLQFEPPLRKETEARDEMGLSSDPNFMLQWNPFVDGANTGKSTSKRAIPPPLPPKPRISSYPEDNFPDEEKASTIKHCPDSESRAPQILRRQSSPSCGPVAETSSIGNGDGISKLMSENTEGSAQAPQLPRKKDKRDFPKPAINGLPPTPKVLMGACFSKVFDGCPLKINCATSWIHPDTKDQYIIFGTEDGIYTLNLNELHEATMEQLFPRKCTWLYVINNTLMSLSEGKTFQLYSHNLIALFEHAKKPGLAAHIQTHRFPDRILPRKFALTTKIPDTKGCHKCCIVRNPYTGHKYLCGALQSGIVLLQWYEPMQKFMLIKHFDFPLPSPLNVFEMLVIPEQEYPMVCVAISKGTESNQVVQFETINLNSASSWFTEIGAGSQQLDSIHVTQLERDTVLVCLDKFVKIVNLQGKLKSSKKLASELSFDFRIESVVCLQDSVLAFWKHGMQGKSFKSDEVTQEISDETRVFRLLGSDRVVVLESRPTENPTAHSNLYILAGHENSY
# Sequence of Casein kinase II subunit alpha (P68400 whole entry, looked up): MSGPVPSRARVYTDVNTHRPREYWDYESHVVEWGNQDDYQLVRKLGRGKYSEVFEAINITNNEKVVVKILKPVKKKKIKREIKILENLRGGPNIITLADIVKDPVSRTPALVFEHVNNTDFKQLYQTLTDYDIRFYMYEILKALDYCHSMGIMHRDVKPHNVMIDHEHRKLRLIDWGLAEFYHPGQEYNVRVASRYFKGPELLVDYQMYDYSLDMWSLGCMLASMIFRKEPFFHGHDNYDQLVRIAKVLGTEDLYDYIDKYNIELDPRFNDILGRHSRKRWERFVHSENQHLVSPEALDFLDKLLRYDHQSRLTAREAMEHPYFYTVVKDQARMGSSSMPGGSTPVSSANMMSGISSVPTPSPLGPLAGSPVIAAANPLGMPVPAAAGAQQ
# Sequence of Serine/threonine-protein kinase 24 (Homo sapiens) (Q9Y6E0 whole entry, looked up): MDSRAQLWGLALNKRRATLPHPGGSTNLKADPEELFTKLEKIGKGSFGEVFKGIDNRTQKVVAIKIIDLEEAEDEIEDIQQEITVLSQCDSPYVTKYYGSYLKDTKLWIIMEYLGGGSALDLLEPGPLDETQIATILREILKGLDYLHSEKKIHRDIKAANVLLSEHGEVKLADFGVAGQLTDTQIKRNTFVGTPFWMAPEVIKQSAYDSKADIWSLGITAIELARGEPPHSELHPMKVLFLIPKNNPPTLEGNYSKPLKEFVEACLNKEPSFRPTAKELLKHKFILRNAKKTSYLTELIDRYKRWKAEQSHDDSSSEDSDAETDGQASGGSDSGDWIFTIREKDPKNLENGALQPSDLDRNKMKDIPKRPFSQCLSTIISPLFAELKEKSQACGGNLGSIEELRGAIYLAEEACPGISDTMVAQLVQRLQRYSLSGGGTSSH
smiles,measurement,setting,value
COCC(=O)NC/C=C/c1ccc2ncnc(Nc3ccc(Oc4ccc(C)nc4)c(C)c3)c2c1 [CP-724714],% of control,[1],100%
C=CC(=O)Nc1cc(-n2c(=O)ccc3cnc4ccc(-c5ccc(NS(C)(=O)=O)cc5)cc4c32)ccc1C,% of control,[2]; at 1 µM,100%
same,% of control,[2]; at 10 µM,91%
Cc1cnc(Nc2ccc(F)cc2Cl)nc1-c1c[nH]c(C(=O)N[C@H](CO)c2cccc(Cl)c2)c1,% of inhibition,[3],3%
COc1cc(Nc2nc(C)cc(-c3cnn4nc(OC)ccc34)n2)cc(C(F)(F)F)c1,% of control,[4],76%
Cc1ccc(-c2ccc3c(ccc4sc5c(c43)NC[C@@H](C)NC5=O)n2)cn1,% of inhibition,[5],-15%
C=CC(=O)Nc1cccc(C(=O)Nc2ccc(Nc3cc(-c4[nH]c(SC)nc4C)ccn3)cc2)c1,% of control,[6]; at 1 µM,71%
same,% of control,[6]; at 5 µM,49%
same,% of control,[7]; at 1 µM,99%
same,% of control,[7]; at 5 µM,76%
CN1Cc2nccc(-c3cn(C)nc3-c3ccc(F)cc3)c2C1=O,% of inhibition,[8],-3%
CNC(=O)Nc1ccc(-c2nc(N3CC4CCC(C3)O4)c3cnn(C4CCC5(CC4)OCCO5)c3n2)cc1,% of inhibition,[9],0%
same,% of inhibition,[10],3%
CC[C@@H]1[C@H](F)C(=O)N[C@@H]1COc1nccc2cc(C(N)=O)c(OC)cc12 [ZIMLOVISERTIB],% of inhibition,[11],91.4%
same,% of inhibition,[12],-52.3%
same,% of inhibition,[13]; at 0.01 µM,12.6%
same,% of inhibition,[13]; at 0.04 µM,-4.3%
same,% of inhibition,[13]; at 0.2 µM,-10.6%
same,% of inhibition,[13]; at 1 µM,18.3%
same,% of inhibition,[13]; at 5 µM,53.9%
same,% of inhibition,SRSF protein kinase 1,-7.7%
